Like-named read-outs stand apart in the source and are kept apart here.
Experiments:
rat mGluR7 [1] = target: T1, rat mGluR7 (Rattus norvegicus, UniProt P35400); conditions: cited from earlier work
T1 construct: host or cells: CHO cells, transfected

mGluR7 [2] = target: T2, mGluR7 (Homo sapiens, UniProt Q14831); parameters: host or cells: CHO cells, transfected; conditions: CHO cells coexpressing human mGluR7 with G15; cited from earlier work
rat mGluR7 [3] = target: T1, rat mGluR7; conditions: CHO cells expressing rat mGluR7; read-out: IC50, inhibition of L-AP4-induced inhibition of forskolin-stimulated cAMP accumulation; cited from earlier work
mGluR7 [4] = target: T2, mGluR7; parameters: host or cells: CHO cells (printed only for the inverse-agonism experiment, A12); conditions: CHO cells expressing mGluR7; cited from earlier work
mGluR2 = mGluR2 (Homo sapiens, UniProt Q14416); conditions: concentrations of at least 1 μM; cited from earlier work
mGluR3 = mGluR3 (Homo sapiens, UniProt Q14832); conditions: concentrations of at least 1 μM; cited from earlier work
Chain of mGluR3 (Q14832 23-879): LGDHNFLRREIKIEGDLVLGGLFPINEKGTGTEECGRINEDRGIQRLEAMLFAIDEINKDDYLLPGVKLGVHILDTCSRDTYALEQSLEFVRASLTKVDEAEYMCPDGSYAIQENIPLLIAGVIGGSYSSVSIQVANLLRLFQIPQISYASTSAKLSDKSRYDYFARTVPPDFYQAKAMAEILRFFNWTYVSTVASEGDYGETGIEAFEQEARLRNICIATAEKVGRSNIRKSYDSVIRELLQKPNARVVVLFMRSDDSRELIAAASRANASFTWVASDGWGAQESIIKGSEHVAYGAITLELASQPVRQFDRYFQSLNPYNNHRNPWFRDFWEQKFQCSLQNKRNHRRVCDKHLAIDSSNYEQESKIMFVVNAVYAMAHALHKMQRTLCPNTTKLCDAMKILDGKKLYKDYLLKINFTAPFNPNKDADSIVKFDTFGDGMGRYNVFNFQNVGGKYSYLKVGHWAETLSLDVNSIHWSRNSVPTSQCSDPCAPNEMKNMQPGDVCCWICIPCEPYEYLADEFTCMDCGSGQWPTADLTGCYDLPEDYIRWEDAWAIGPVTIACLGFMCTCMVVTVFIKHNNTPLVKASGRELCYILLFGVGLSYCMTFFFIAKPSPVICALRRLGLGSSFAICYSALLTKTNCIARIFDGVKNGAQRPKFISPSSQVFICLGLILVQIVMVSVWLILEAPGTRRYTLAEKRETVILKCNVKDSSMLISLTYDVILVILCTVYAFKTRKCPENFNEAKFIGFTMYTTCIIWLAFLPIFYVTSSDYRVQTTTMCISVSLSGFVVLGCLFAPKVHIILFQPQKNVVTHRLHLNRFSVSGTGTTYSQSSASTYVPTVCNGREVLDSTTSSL

mGluR7 [5] = target: T2, mGluR7; conditions: cited from earlier work
mGluR8 [6] = target: T3, mGluR8 (Homo sapiens, UniProt O00222); conditions: concentrations of at least 1 μM; cited from earlier work
T3 sequence (O00222 34-908, species assumed): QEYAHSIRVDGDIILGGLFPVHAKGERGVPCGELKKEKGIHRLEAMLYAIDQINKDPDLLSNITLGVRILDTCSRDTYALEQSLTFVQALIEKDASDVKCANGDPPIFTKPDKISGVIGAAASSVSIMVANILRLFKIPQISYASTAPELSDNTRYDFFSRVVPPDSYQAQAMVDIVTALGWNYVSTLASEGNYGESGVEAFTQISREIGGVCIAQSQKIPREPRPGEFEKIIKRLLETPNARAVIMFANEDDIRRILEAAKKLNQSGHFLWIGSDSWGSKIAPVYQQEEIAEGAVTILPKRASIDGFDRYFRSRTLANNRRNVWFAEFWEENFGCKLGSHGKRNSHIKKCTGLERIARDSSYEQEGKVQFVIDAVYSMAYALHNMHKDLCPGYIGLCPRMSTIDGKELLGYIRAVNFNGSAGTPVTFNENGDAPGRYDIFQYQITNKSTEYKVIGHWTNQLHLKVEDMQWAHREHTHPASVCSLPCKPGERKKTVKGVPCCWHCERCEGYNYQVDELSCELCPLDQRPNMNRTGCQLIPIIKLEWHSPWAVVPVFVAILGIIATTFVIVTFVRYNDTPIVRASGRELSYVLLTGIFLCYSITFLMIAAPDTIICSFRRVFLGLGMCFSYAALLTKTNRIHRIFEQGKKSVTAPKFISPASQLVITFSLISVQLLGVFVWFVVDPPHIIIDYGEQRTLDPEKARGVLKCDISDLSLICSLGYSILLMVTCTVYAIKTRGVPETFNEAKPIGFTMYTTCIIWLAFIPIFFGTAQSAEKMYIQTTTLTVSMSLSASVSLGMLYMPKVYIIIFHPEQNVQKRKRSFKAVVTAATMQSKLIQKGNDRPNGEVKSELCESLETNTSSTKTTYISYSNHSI

mGluR4 = mGluR4 (Homo sapiens, UniProt Q14833); conditions: concentrations of at least 1 μM; cited from earlier work
Chain of mGluR4 (Q14833 33-912): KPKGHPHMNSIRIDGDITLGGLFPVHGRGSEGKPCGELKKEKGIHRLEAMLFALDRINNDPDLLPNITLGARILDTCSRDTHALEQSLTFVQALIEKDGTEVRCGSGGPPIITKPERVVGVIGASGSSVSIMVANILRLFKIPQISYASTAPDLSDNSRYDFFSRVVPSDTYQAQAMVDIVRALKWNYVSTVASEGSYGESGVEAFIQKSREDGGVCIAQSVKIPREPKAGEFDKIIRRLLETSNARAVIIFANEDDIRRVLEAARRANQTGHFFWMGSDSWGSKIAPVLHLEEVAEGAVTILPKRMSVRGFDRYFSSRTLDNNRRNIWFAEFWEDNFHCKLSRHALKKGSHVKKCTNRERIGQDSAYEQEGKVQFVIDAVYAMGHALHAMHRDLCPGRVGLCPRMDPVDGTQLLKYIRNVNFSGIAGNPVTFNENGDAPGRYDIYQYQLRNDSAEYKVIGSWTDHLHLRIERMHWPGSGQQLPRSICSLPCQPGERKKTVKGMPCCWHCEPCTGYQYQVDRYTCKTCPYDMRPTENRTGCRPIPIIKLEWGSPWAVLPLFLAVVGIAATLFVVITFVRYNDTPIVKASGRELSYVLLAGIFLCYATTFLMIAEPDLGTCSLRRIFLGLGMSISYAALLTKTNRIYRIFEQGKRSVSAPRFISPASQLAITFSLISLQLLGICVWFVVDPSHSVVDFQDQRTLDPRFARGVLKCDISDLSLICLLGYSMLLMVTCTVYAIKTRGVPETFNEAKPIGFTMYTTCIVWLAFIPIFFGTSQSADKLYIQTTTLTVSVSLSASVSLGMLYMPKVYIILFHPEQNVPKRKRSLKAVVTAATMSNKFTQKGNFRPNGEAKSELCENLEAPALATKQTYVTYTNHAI

mGluR1 = mGluR1 (Homo sapiens, UniProt Q13255); conditions: concentrations of at least 1 μM; cited from earlier work
mGluR5 = mGluR5 (Homo sapiens, UniProt P41594); conditions: concentrations of at least 1 μM; cited from earlier work
mGluR7 [7] = target: T2, mGluR7; conditions: cited from earlier work; remark: listed apart in the source
mGluR4a = mGluR4a (Homo sapiens, UniProt Q14833); conditions: agonist; cited from earlier work
Chain of mGluR4a (Q14833 33-912): as above

human mGluR7b = human mGluR7b (Homo sapiens, UniProt Q14831); conditions: agonist; cited from earlier work
mGluR7 [8] = target: T2, mGluR7; conditions: higher for mGluR7; cited from earlier work
presbycusis = assay: treatment of patients with presbycusis, hearing threshold; format: in vivo, human; conditions: for hearing threshold left ear / hearing threshold right ear: after 14 days
Description: A person presents with symptoms of presbycusis, including moderate loss of higher frequency (above 2000 Hz) hearing (50 decibel threshold) in both ears. The person is administered two drops per ear twice daily of a topical otic formulation comprising 10 ug/ml of AMN082 in a phosphate-buffered saline and further comprising 0.25% the carboxyvinyl water swellable gelling agent, Carbopol 934P; i.e., about 1 ug nGluR7 agonist per ear per dosing. After 14 days, the patient is tested by an audiologist. The threshold is lowered to 35 decibels right ear and 40 decibels left ear.
A person presents with symptoms of presbycusis, including loss of moderately high frequency (above 1000 Hz) hearing (40 decibel threshold right ear and 35 decibel threshold left ear). The person is administered an oral formulation 4 times per day comprising 2 ug per dose of AMN082. The extended release capsule comprises a matrix of 10% by weight hydroxypropyl methylcellulose (e.g., Methocel®; Dow Chemical Company, U.S.A), and 50% by weight of a cornstarch filler. After 14 days, the threshold is lowered to 35 decibels right ear and 25 decibels left ear.
A person presents with symptoms of presbycusis, including loss of hearing in the 500 to above 2000 Hz range. The person is implanted with an Alset® osmotic pump adapted for cochlear delivery; see e.g., Richardson, R. T., Noushi, F., O'Leary, S. Inner ear therapy for neural preservation. AUDIOLOGY AND NEURO-OTOLOGY 2006; 11(6): 343-356. The pump is supplied with an aqueous sterile solution comprising AMN082. The pump delivers a dose of 10 ug/hour of the mGluR7 modulator. After 10 days, hearing is improved in both ears.

mGluR7 [9] = target: T2, mGluR7; conditions: through an allosteric site; cited from earlier work
mGluR7 [10] = target: T4, mGluR7 (Mus musculus, UniProt Q68ED2); conditions: cited from earlier work
T4 construct: host or cells: whole animals (in vivo), endogenous receptor
T4 sequence (Q68ED2 35-915): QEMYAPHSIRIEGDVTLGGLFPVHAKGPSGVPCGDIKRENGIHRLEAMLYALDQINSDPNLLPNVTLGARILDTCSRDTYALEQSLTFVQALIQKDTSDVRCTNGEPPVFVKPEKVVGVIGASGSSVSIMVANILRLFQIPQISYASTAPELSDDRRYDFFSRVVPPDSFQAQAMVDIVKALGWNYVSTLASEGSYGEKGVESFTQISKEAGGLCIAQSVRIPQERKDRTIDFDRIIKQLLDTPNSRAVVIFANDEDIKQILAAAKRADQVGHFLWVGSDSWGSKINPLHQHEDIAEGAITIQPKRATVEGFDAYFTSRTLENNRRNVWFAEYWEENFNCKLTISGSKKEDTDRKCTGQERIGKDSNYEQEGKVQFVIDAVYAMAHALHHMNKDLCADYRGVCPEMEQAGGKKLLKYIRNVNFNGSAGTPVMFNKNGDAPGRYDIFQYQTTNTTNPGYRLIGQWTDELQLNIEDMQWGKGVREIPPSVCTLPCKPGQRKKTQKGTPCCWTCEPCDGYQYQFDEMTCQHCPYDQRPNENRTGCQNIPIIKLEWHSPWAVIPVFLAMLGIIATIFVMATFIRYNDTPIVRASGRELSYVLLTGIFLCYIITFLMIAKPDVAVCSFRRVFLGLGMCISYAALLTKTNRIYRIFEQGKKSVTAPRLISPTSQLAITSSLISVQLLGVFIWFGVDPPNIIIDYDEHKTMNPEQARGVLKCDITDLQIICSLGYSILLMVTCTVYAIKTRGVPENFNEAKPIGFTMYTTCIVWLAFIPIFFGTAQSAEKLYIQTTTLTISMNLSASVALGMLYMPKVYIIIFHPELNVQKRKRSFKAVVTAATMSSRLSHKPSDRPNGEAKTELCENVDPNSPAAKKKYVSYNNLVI

mGluR8 [11] = target: T3, mGluR8; conditions: antagonist; read-out: 1050 values on inhibition of glutamate stimulated inositol phosphate accumulation, mGluR8; cited from earlier work
mGluR7 [12] = target: T2, mGluR7; conditions: antagonist; read-out: 1050 values on inhibition of glutamate stimulated inositol phosphate accumulation, mGluR7; cited from earlier work
mGluR6 = mGluR6 (Homo sapiens, UniProt O15303); conditions: antagonist; read-out: 1050 values on inhibition of glutamate stimulated inositol phosphate accumulation, mGluR6; cited from earlier work
Chain of mGluR6 (O15303 25-877): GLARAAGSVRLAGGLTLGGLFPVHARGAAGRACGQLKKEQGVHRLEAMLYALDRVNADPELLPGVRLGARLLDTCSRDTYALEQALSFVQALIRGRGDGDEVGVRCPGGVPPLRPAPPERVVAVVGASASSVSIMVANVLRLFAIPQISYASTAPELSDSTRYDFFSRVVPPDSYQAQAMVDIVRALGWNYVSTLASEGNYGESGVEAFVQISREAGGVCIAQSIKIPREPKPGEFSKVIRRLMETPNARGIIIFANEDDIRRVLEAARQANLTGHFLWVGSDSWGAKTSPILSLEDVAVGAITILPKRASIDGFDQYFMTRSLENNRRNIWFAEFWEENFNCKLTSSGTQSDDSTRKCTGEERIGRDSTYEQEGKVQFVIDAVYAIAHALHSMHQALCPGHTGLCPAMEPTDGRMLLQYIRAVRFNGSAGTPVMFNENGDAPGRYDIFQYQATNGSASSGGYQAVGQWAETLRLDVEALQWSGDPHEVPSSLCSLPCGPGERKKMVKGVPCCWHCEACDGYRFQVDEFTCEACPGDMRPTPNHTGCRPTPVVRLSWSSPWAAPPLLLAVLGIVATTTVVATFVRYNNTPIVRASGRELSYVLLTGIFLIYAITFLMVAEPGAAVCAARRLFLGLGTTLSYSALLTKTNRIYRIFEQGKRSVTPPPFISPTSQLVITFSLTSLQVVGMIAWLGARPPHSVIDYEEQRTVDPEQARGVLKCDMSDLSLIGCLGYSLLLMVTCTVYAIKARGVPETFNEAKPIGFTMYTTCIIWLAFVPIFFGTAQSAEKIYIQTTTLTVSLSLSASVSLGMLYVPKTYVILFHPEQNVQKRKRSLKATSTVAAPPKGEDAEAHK

[13] = Example 3: person, topical otic drops twice daily, baseline 50 decibel, above 2000 Hz

T2 sequence (Q14831 35-915): as the sequence (Q68ED2 35-915) above, with T454S, P486A, N544D counted along it
T1 sequence (P35400 35-915): as the sequence (Q68ED2 35-915) above, with N420H, P486S counted along it

Compound: 5-Methyl-3,6-diphenylisoxazolo[4,5-e]pyridin-4(5H)-one [MDIP]
- IC50 (rat mGluR7 [1]; CHO cells coexpressing rat mGluR7 with G15, read-out: IC50, inhibition of L-AP4-induced intracellular Ca2+ mobilization): 0.02 µM
- inhibition of the L-AP4-induced cAMP response (mGluR7 [2]): inhibited
- IC50 (rat mGluR7 [3]): 0.099 µM

Compound: COc1ccc(-c2cc3onc(-c4ccncc4)c3c(=O)n2C)cc1 [MMPIP, 6-(4-methoxyphenyl)-5-methyl-3-pyridin-4-ylisoxazolo[4,5-c]pyridin-4(5H)-one]
- forskolin-stimulated cAMP levels in the absence of agonists (inverse agonistic activity) (mGluR7 [4]): further increase
- effect on mGluR2 (mGluR2): no significant effect
- effect on mGluR3 (mGluR3): no significant effect
- antagonism of AMN082-induced inhibition of cAMP accumulation (mGluR7 [5]): able to antagonize
- effect on mGluR8 (mGluR8 [6]): no significant effect
- maximal response in agonist concentration-response curves in the presence of the compound (rat mGluR7 [1]): reduced
- reversibility of antagonism (rat mGluR7 [1]): reversible
- inhibition of the L-AP4-induced cAMP response (mGluR7 [2]): inhibited
- IC50 (rat mGluR7 [3]): 0.22 µM
- effect on mGluR4 (mGluR4): no significant effect
- effect on mGluR1 (mGluR1): no significant effect
- effect on mGluR5 (mGluR5): no significant effect
- displacement of [3H]LY341495 bound to mGluR7 (mGluR7 [7]): did not displace

Compound: N[C@@H](C(=O)O)c1ccc(P(=O)(O)O)cc1 (racemic) [(+)-PPG, (R,S)-phosphonophenylglycine]
- EC50 (mGluR4a): 3.2 µM
- EC50 (human mGluR7b): 48 µM

Compound: N[C@@H](CCP(=O)(O)O)C(=O)O [L-AP4, L-(+)-2-amino-4-phosphonobutyric acid]
- concentrations activating mGluR7 relative to those activating mGluRs 4, 6, and 8 (mGluR7 [8]): 2-3 orders of magnitude

Compound: Cl.Cl.c1ccc(C(NCCNC(c2ccccc2)c2ccccc2)c2ccccc2)cc1 [AMN082, N,N′-dibenzhydryl-ethane-1,2-diamine dihydrochloride]
- hearing threshold left ear (presbycusis; [13]): 40 decibels
- hearing threshold right ear (presbycusis; [13]): 35 decibels
- hearing threshold left ear (presbycusis; Example 4: person, oral 2 ug 4 times per day, baseline 35 decibel, above 1000 Hz): 25 decibels
- hearing threshold right ear (presbycusis; Example 4: person, oral 2 ug 4 times per day, baseline 40 decibel, above 1000 Hz): 35 decibels
- hearing in both ears (presbycusis; Example 5: person, cochlear osmotic pump 10 ug/hour, after 10 days): improved
- activation of mGluR7 (mGluR7 [9]): fully activating
- oral activity (mGluR7 [10]; in vivo, po): orally active
- blood-brain barrier penetration (mGluR7 [10]; in vivo): penetrate the blood-brain barrier
- increase in stress hormone levels in mGluR7 knockout animals (mGluR7 [10]; mGluR7 knockout animals): absent
- stress hormone levels (mGluR7 [10]; wild-type animals): robust increase

Compound: N[C@H](C(=O)O)C1[C@H](C(=O)O)[C@H]1C(=O)O (stereo partly drawn) [DCG-IV, (2S,1'S,2'S)-2-(dicarboxycyclopropyl)glycine]
- IC50 (mGluR8 [11]): 32 µM
- IC50 (mGluR7 [12]): 40.1 µM
- IC50 (mGluR6): 39.6 µM
